The values below come from PMC3794980, “Identification of Conserved and HLA Promiscuous DENV3 T-Cell Epitopes” (PLoS Neglected Tropical Diseases, 2013).

The target in experiment [1] is DRB4*0101 (Homo sapiens, UniProt P01903+P13762, G164S). The experiment is described as follows: biochemical. Type of experiment: binding.
In experiment [2] the target is DRB3*0101 (Homo sapiens, UniProt P01903+P79483). The experiment is described as follows: biochemical. Type of experiment: binding.

Where no end group is shown, it is not given here.

In general, IC50 refers to the point on the concentration scale where inhibition reaches its midpoint. Higher therefore signals weaker potency in that assay. For `CSCC[C@H](NC(=O)[C@@H](NC(=O)[C@@H](NC(=O)[C@@H](NC(=O)[C@H](CS)NC(=O)CNC(=O)CNC(=O)[C@H](Cc1c[nH]cn1)NC(=O)[C@H](CCC(=O)O)NC(=O)[C@H](CC(C)C)NC(=O)[C@@H](NC(=O)[C@@H](NC(=O)[C@H](CC(=O)O)NC(=O)[C@@H](N)C(C)C)C(C)C)C(C)C)C(C)C)[C@@H](C)O)[C@@H](C)O)C(=O)N[C@@H](C)C(=O)O` [Envelope 21-35], in experiment [1], 4.5 µM corresponded to half-maximal inhibition (IC50).
Turning to `CC[C@H](C)[C@H](NC(=O)[C@H](CCC(=O)O)NC(=O)[C@H](C)NC(=O)[C@@H](NC(=O)[C@@H](NC(=O)CNC(=O)[C@@H](N)CCC(N)=O)C(C)C)[C@@H](C)O)C(=O)N[C@H](C(=O)N1CCC[C@H]1C(=O)N[C@@H](CCC(N)=O)C(=O)N[C@@H](C)C(=O)N[C@@H](CO)C(=O)N[C@H](C(=O)N[C@H](C(=O)N[C@@H](CCC(=O)O)C(=O)O)[C@@H](C)O)[C@@H](C)O)[C@@H](C)O` [Envelope 156-170], half-maximal inhibition in experiment [1] (IC50) was put at 0.707 µM.
For the compound `CC[C@H](C)[C@H](NC(=O)[C@H](C)NC(=O)[C@@H](NC(=O)[C@H](C)NC(=O)[C@H](CC(C)C)NC(=O)[C@H](CCCNC(=N)N)NC(=O)[C@H](CCCCN)NC(=O)[C@@H]1CCCN1C(=O)[C@H](CO)NC(=O)[C@H](CC(=O)O)NC(=O)[C@H](C)NC(=O)[C@H](CCC(N)=O)NC(=O)[C@H](Cc1ccccc1)NC(=O)[C@@H](N)CCCCN)[C@@H](C)O)C(=O)N[C@@H](C)C(=O)O` [NS1 33-47], the IC50 turned out to be 0.022 µM in experiment [2] and 0.916 µM in experiment [1].
For the compound `CC[C@H](C)[C@H](NC(=O)[C@@H](NC(=O)[C@H](CCSC)NC(=O)[C@H](CC(=O)O)NC(=O)[C@H](CO)NC(=O)[C@H](CCC(=O)O)NC(=O)[C@H](CC(C)C)NC(=O)[C@@H](NC(=O)CNC(=O)[C@H](CC(N)=O)NC(=O)[C@H](CO)NC(=O)[C@H](Cc1c[nH]c2ccccc12)NC(=O)[C@H](CC(C)C)NC(=O)[C@@H](NC(=O)[C@@H](N)Cc1c[nH]cn1)[C@@H](C)O)C(C)C)[C@@H](C)CC)C(=O)O` [NS1 229-243], the IC50 in experiment [2] came out at 0.733 µM; in experiment [1], 8.08 µM.
As for `CC(C)C[C@H](NC(=O)[C@H](CCC(=O)O)NC(=O)[C@H](CC(C)C)NC(=O)[C@H](CCCCN)NC(=O)CNC(=O)[C@H](CC(C)C)NC(=O)[C@H](Cc1c[nH]cn1)NC(=O)[C@H](Cc1c[nH]c2ccccc12)NC(=O)[C@@H]1CCCN1C(=O)CNC(=O)[C@H](C)NC(=O)[C@@H](NC(=O)[C@H](CCC(N)=O)NC(=O)[C@@H](NC(=O)[C@@H](N)Cc1c[nH]cn1)[C@@H](C)O)[C@@H](C)O)C(=O)O` [NS1 261-275], the IC50 in experiment [2] is 1.33 µM; in experiment [1], 0.666 µM.
Taken in the same sequence, the figures for `CC[C@H](C)[C@H](N)C(=O)N[C@@H](CO)C(=O)N[C@@H](Cc1ccc(O)cc1)C(=O)NCC(=O)NCC(=O)NCC(=O)N[C@@H](Cc1c[nH]c2ccccc12)C(=O)N[C@@H](CCCNC(=N)N)C(=O)N[C@@H](CC(C)C)C(=O)N[C@@H](CO)C(=O)N[C@@H](C)C(=O)N[C@@H](CCC(N)=O)C(=O)N[C@@H](Cc1c[nH]c2ccccc12)C(=O)N[C@@H](CCC(N)=O)C(=O)N[C@@H](CCCCN)C(=O)O` [NS3 77-91] were 2.02 µM and 0.708 µM.
Turning to `CC[C@H](C)[C@H](NC(=O)[C@@H](NC(=O)[C@H](CC(C)C)NC(=O)[C@H](CC(N)=O)NC(=O)[C@H](CCCNC(=N)N)NC(=O)[C@H](CCCCN)NC(=O)[C@H](CCCCN)NC(=O)[C@H](Cc1ccccc1)NC(=O)[C@H](CCSC)NC(=O)[C@H](CCC(=O)O)NC(=O)[C@@H](N)CCC(=O)O)[C@@H](C)O)C(=O)N[C@@H](CCSC)C(=O)N[C@@H](CC(=O)O)C(=O)N[C@@H](CC(C)C)C(=O)N[C@@H](Cc1c[nH]cn1)C(=O)O` [NS3 181-195], the IC50 in experiment [2] was found to be 1.26 µM; in experiment [1] it was 0.068 µM.
As for `CC[C@H](C)[C@H](NC(=O)[C@@H](NC(=O)[C@H](CC(C)C)NC(=O)[C@H](CC(N)=O)NC(=O)[C@H](CCCNC(=N)N)NC(=O)[C@H](CCCCN)NC(=O)[C@@H](N)CCCCN)[C@@H](C)O)C(=O)N[C@@H](CCSC)C(=O)N[C@@H](CC(=O)O)C(=O)N[C@@H](CC(C)C)C(=O)N[C@@H](Cc1c[nH]cn1)C(=O)N1CCC[C@H]1C(=O)NCC(=O)N[C@@H](CO)C(=O)NCC(=O)O` [NS3 185-199], the IC50 in experiment [2] was 1.46 µM; in experiment [1], 0.0076 µM.
Regarding `CC[C@H](C)[C@H](NC(=O)[C@H](C)NC(=O)[C@H](CCC(=O)O)NC(=O)[C@H](CCCNC(=N)N)NC(=O)[C@@H](N)C(C)C)C(=O)N[C@@H](CCCCN)C(=O)N[C@@H](CCCNC(=N)N)C(=O)N[C@@H](CCCNC(=N)N)C(=O)N[C@@H](CC(C)C)C(=O)N[C@@H](CCCNC(=N)N)C(=O)N[C@H](C(=O)N[C@@H](CC(C)C)C(=O)N[C@H](C(=O)N[C@@H](CC(C)C)C(=O)N[C@@H](C)C(=O)O)[C@@H](C)CC)[C@@H](C)O` [NS3 209-223], the results for the IC50 in experiment [2] and in experiment [1] were 2.61 µM and 0.0051 µM, respectively.
For `CC[C@H](C)[C@H](NC(=O)[C@H](CO)NC(=O)[C@H](C)N)C(=O)N[C@@H](C)C(=O)N[C@@H](C)C(=O)N[C@@H](CCCNC(=N)N)C(=O)NCC(=O)N[C@@H](Cc1ccc(O)cc1)C(=O)N[C@H](C(=O)N[C@@H](CO)C(=O)N[C@H](C(=O)N[C@@H](CCCNC(=N)N)C(=O)N[C@H](C(=O)NCC(=O)N[C@@H](CCSC)C(=O)O)C(C)C)[C@@H](C)O)[C@@H](C)CC` [NS3 293-307], the IC50 in experiment [2] worked out at 18.9 µM; in experiment [1], 2.67 µM.
In the case of `CC[C@H](C)[C@H](NC(=O)[C@H](Cc1c[nH]c2ccccc12)NC(=O)[C@H](CCC(=O)O)NC(=O)[C@H](CC(N)=O)NC(=O)CNC(=O)[C@H](CO)NC(=O)[C@H](CC(N)=O)NC(=O)[C@@H](N)Cc1c[nH]c2ccccc12)C(=O)N[C@H](C(=O)N[C@@H](CC(=O)O)C(=O)N[C@@H](Cc1ccccc1)C(=O)N[C@@H](C)C(=O)NCC(=O)N[C@@H](CCCCN)C(=O)N[C@H](C(=O)O)[C@@H](C)O)[C@@H](C)O` [NS3 345-359], the IC50 in experiment [2] worked out at 0.032 µM; in experiment [1], 1.05 µM.
Taken in the same sequence, the figures for `CC[C@H](C)[C@H](NC(=O)[C@H](Cc1c[nH]c2ccccc12)NC(=O)[C@H](CCC(=O)O)NC(=O)[C@@H](N)CC(N)=O)C(=O)N[C@H](C(=O)N[C@@H](CC(=O)O)C(=O)N[C@@H](Cc1ccccc1)C(=O)N[C@@H](C)C(=O)NCC(=O)N[C@@H](CCCCN)C(=O)N[C@H](C(=O)N[C@H](C(=O)N[C@@H](Cc1c[nH]c2ccccc12)C(=O)N[C@@H](Cc1ccccc1)C(=O)N[C@H](C(=O)O)C(C)C)C(C)C)[C@@H](C)O)[C@@H](C)O` [NS3 349-363] were 0.221 µM and 5.42 µM.
Take `CC[C@H](C)[C@H](NC(=O)[C@H](CCC(=O)O)NC(=O)CNC(=O)[C@H](CCCNC(=N)N)NC(=O)[C@H](CCCCN)NC(=O)[C@H](CC(C)C)NC(=O)CNC(=O)[C@H](CCC(=O)O)NC(=O)[C@H](CCCCN)NC(=O)[C@H](C)NC(=O)[C@H](CCC(=O)O)NC(=O)[C@@H](N)[C@@H](C)O)C(=O)N[C@H](C(=O)N[C@@H](Cc1c[nH]cn1)C(=O)N[C@@H](Cc1c[nH]cn1)C(=O)N[C@@H](C)C(=O)N[C@H](C(=O)O)C(C)C)[C@@H](C)O` [NS5 39-55]: the IC50 in experiment [2] came to 0.749 µM; in experiment [1], 0.563 µM.
In experiment [1], `C[C@H](NC(=O)[C@H](Cc1c[nH]c2ccccc12)NC(=O)[C@@H](NC(=O)[C@H](CCCCN)NC(=O)[C@H](Cc1ccc(O)cc1)NC(=O)[C@@H]1CCCN1C(=O)[C@H](CC(N)=O)NC(=O)[C@H](CCC(=O)O)NC(=O)[C@H](CC(=O)O)NC(=O)[C@H](CC(=O)O)NC(=O)[C@H](Cc1ccc(O)cc1)NC(=O)[C@H](Cc1c[nH]cn1)NC(=O)[C@H](Cc1c[nH]c2ccccc12)NC(=O)[C@@H](N)[C@@H](C)O)[C@@H](C)O)C(=O)N[C@@H](Cc1ccc(O)cc1)C(=O)N[C@@H](Cc1c[nH]cn1)C(=O)NCC(=O)O` [NS5 290-306] had a 50% inhibitory concentration (IC50) of 15.6 µM.
On to `CC[C@H](C)[C@H](NC(=O)[C@H](CCSC)NC(=O)[C@H](CO)NC(=O)[C@H](CO)NC(=O)[C@H](C)NC(=O)[C@H](CO)NC(=O)CNC(=O)[C@@H](NC(=O)[C@H](C)NC(=O)[C@H](CCCCN)NC(=O)[C@@H](NC(=O)[C@H](CCC(=O)O)NC(=O)[C@H](Cc1ccc(O)cc1)NC(=O)[C@H](CO)NC(=O)CN)C(C)C)[C@@H](C)O)C(=O)N[C@@H](CC(N)=O)C(=O)NCC(=O)O` [NS5 306-322], for which the IC50 in experiment [2] was determined as 2.29 µM; in experiment [1], 5.55 µM.
Turning to `CC[C@H](C)[C@H](NC(=O)[C@H](CC(=O)O)NC(=O)[C@H](CCSC)NC(=O)[C@@H](NC(=O)[C@@H](NC(=O)CNC(=O)[C@H](CCCCN)NC(=O)[C@@H]1CCCN1C(=O)[C@@H](NC(=O)[C@@H]1CCCN1)[C@@H](C)O)[C@@H](C)O)C(C)C)C(=O)N[C@H](C(=O)N[C@@H](CO)C(=O)N[C@@H](CCCNC(=N)N)C(=O)N[C@@H](CCCCN)C(=O)N[C@@H](CC(=O)O)C(=O)N[C@@H](CCC(N)=O)C(=O)N[C@@H](CCCNC(=N)N)C(=O)O)[C@@H](C)CC` [NS5 582-598], the IC50 in experiment [2] turned out to be 7.22 µM; in experiment [1], 1.54 µM.
In the case of `CC[C@H](C)[C@H](NC(=O)[C@H](CCCCN)NC(=O)[C@H](CCCCN)NC(=O)[C@H](CCC(=O)O)NC(=O)[C@H](CC(C)C)NC(=O)[C@@H]1CCCN1C(=O)[C@H](Cc1c[nH]cn1)NC(=O)[C@@H]1CCCN1)C(=O)N[C@H](C(=O)N[C@@H](CCC(N)=O)C(=O)N[C@@H](Cc1c[nH]c2ccccc12)C(=O)N[C@@H](CC(C)C)C(=O)N[C@@H](CCC(=O)O)C(=O)N[C@H](C(=O)N[C@@H](CCCCN)C(=O)NCC(=O)N[C@H](C(=O)O)C(C)C)[C@@H](C)O)[C@@H](C)O` [NS5 636-652], in experiment [1], half-maximal inhibition (IC50) was put at 3.83 µM.
For the compound `CC[C@H](C)[C@H](NC(=O)[C@H](C)NC(=O)[C@H](CCSC)NC(=O)[C@H](CCCNC(=N)N)NC(=O)[C@H](CCCCN)NC(=O)[C@H](CC(C)C)NC(=O)[C@H](CCCNC(=N)N)NC(=O)[C@H](CCC(=O)O)NC(=O)[C@@H](N)C(C)C)C(=O)N[C@@H](CO)C(=O)NCC(=O)N[C@@H](CC(=O)O)C(=O)N[C@@H](CC(=O)O)C(=O)N[C@@H](CS)C(=O)N[C@H](C(=O)N[C@H](C(=O)N[C@@H](CCCCN)C(=O)O)C(C)C)C(C)C` [NS5 652-668], the IC50 in experiment [1] was found to be 0.618 µM.
Take EITPQASTTEAILPE [Envelope 161-175]: in experiment [1], it took 16.6 µM to reach half-maximal inhibition (IC50).
Same read-out and setting: to LPWTSGATTETPTWN [Envelope 216-230] belongs 11.6 µM.
